Results from patent US20260266848A1, “COMPOSITIONS AND METHODS FOR DIAGNOSING AND TREATING DYSTONIA” (Duke University, priority 2023, published 2026).

Tested on: DYT-TOR1A MEF EVs
Assay: Quantitative LC-MS/MS proteomics of EVs from drug-treated DYT-TOR1A MEF cultures (ritonavir, salubrinal)
Assay type: cell-based, mouse
Set-up: key to RTV Corrective Direction / RTV Corrective Direction, Grwd1 / RTV Corrective Direction, Srrm2 / RTV Corrective Direction, Rbm17 / RTV Corrective Direction, Dcaf8 / RTV Corrective Direction, Edil3 / RTV Corrective Direction, Timp3 / RTV Corrective Direction, Heatr3 / RTV Corrective Direction, Brd4 / RTV Corrective Direction, P3h4 / RTV Corrective Direction, Pacsin3 / RTV Corrective Direction, Naa50 / RTV Corrective Direction, Lpar6 / RTV Corrective Direction, Ndrg1 / RTV Corrective Direction, Kntc1 / RTV Corrective Direction, Cdk11b / RTV Corrective Direction, Sumo1 / RTV Corrective Direction, Lsm4 / RTV Corrective Direction, Hmga2 / RTV Corrective Direction, Cstf1 / RTV Corrective Direction, Tes / RTV Corrective Direction, Sbno1 / RTV Corrective Direction, Unc119b / RTV Corrective Direction, Cfdp1 / RTV Corrective Direction, Sec61b: YES = protein abundance effect opposite to DYT/WT

CC(C)c1nc(CN(C)C(=O)N[C@H](C(=O)N[C@@H](Cc2ccccc2)C[C@H](O)[C@H](Cc2ccccc2)NC(=O)OCc2cncs2)C(C)C)cs1 [ritonavir]
Absolute Cohen's d Sum (Geno + RTV), Brd4 (EV protein Brd4 (Q9ESU6)): 6.97
DYT + RTV/DYT Cohen's d, Brd4 (EV protein Brd4 (Q9ESU6)): 3.33
RTV Corrective Direction, Brd4 (EV protein Brd4 (Q9ESU6), DYT + RTV vs DYT): YES
Absolute Cohen's d Sum (Geno + RTV), Cdk11b (EV protein Cdk11b (P24788)): 6.07
DYT + RTV/DYT Cohen's d, Cdk11b (EV protein Cdk11b (P24788)): 2.84
RTV Corrective Direction, Cdk11b (EV protein Cdk11b (P24788), DYT + RTV vs DYT): YES
Absolute Cohen's d Sum (Geno + RTV), Cfdp1 (EV protein Cfdp1 (O88271)): 4.50
DYT + RTV/DYT Cohen's d, Cfdp1 (EV protein Cfdp1 (O88271)): 1.87
RTV Corrective Direction, Cfdp1 (EV protein Cfdp1 (O88271), DYT + RTV vs DYT): YES
Absolute Cohen's d Sum (Geno + RTV), Cstf1 (EV protein Cstf1 (Q99LC2)): 4.79
DYT + RTV/DYT Cohen's d, Cstf1 (EV protein Cstf1 (Q99LC2)): 1.81
RTV Corrective Direction, Cstf1 (EV protein Cstf1 (Q99LC2), DYT + RTV vs DYT): YES
Absolute Cohen's d Sum (Geno + RTV), Ctdsp1 (EV protein Ctdsp1 (P58466)): 9.37
DYT + RTV/DYT Cohen's d, Ctdsp1 (EV protein Ctdsp1 (P58466)): −0.28
DYT + RTV/DYT Cohen's d, Dcaf8 (EV protein Dcaf8): 3.49
Absolute Cohen's d Sum (Geno + RTV), Dcaf8 (EV protein Dcaf8 (Q8N7N5)): 7.70
RTV Corrective Direction, Dcaf8 (EV protein Dcaf8 (Q8N7N5), DYT + RTV vs DYT): YES
Absolute Cohen's d Sum (Geno + RTV), Dnajc7 (EV protein Dnajc7 (Q9QYI3)): 4.50
DYT + RTV/DYT Cohen's d, Dnajc7 (EV protein Dnajc7 (Q9QYI3)): −0.67
Absolute Cohen's d Sum (Geno + RTV), Drg1 (EV protein Drg1 (P32233)): 4.38
DYT + RTV/DYT Cohen's d, Drg1 (EV protein Drg1 (P32233)): −1.06
Absolute Cohen's d Sum (Geno + RTV), Edil3 (EV protein Edil3 (O35474)): 7.67
DYT + RTV/DYT Cohen's d, Edil3 (EV protein Edil3 (O35474)): 4.51
RTV Corrective Direction, Edil3 (EV protein Edil3 (O35474), DYT + RTV vs DYT): YES
Absolute Cohen's d Sum (Geno + RTV), Grwd1 (EV protein Grwd1 (Q810D6)): 8.06
DYT + RTV/DYT Cohen's d, Grwd1 (EV protein Grwd1 (Q810D6)): 2.65
RTV Corrective Direction, Grwd1 (EV protein Grwd1 (Q810D6), DYT + RTV vs DYT): YES
Absolute Cohen's d Sum (Geno + RTV), Heatr3 (EV protein Heatr3 (Q8BQM4)): 7.08
DYT + RTV/DYT Cohen's d, Heatr3 (EV protein Heatr3 (Q8BQM4)): 3.09
RTV Corrective Direction, Heatr3 (EV protein Heatr3 (Q8BQM4), DYT + RTV vs DYT): YES
Absolute Cohen's d Sum (Geno + RTV), Hmga2 (EV protein Hmga2 (P52927)): 5.34
DYT + RTV/DYT Cohen's d, Hmga2 (EV protein Hmga2 (P52927)): 1.97
RTV Corrective Direction, Hmga2 (EV protein Hmga2 (P52927), DYT + RTV vs DYT): YES
Absolute Cohen's d Sum (Geno + RTV), Kntc1 (EV protein Kntc1 (Q8C3Y4)): 6.09
DYT + RTV/DYT Cohen's d, Kntc1 (EV protein Kntc1 (Q8C3Y4)): 2.48
RTV Corrective Direction, Kntc1 (EV protein Kntc1 (Q8C3Y4), DYT + RTV vs DYT): YES
Absolute Cohen's d Sum (Geno + RTV), Lpar6 (EV protein Lpar6 (Q8BMC0)): 6.22
DYT + RTV/DYT Cohen's d, Lpar6 (EV protein Lpar6 (Q8BMC0)): −3.03
RTV Corrective Direction, Lpar6 (EV protein Lpar6 (Q8BMC0), DYT + RTV vs DYT): YES
Absolute Cohen's d Sum (Geno + RTV), Lsm4 (EV protein Lsm4 (Q9QXA5)): 5.40
DYT + RTV/DYT Cohen's d, Lsm4 (EV protein Lsm4 (Q9QXA5)): 2.49
RTV Corrective Direction, Lsm4 (EV protein Lsm4 (Q9QXA5), DYT + RTV vs DYT): YES
Absolute Cohen's d Sum (Geno + RTV), Maea (EV protein Maea (Q4VC33)): 3.96
DYT + RTV/DYT Cohen's d, Maea (EV protein Maea (Q4VC33)): −0.37
Absolute Cohen's d Sum (Geno + RTV), Myo1e (EV protein Myo1e (E9Q634)): 5.88
DYT + RTV/DYT Cohen's d, Myo1e (EV protein Myo1e (E9Q634)): −1.46
Absolute Cohen's d Sum (Geno + RTV), Naa50 (EV protein Naa50 (Q6PGB6)): 6.3
DYT + RTV/DYT Cohen's d, Naa50 (EV protein Naa50 (Q6PGB6)): 1.96
RTV Corrective Direction, Naa50 (EV protein Naa50 (Q6PGB6), DYT + RTV vs DYT): YES
Absolute Cohen's d Sum (Geno + RTV), Ndrg1 (EV protein Ndrg1 (Q62433)): 6.19
DYT + RTV/DYT Cohen's d, Ndrg1 (EV protein Ndrg1 (Q62433)): 2.70
RTV Corrective Direction, Ndrg1 (EV protein Ndrg1 (Q62433), DYT + RTV vs DYT): YES
Absolute Cohen's d Sum (Geno + RTV), P3h4 (EV protein P3h4 (Q8K2B0)): 6.88
DYT + RTV/DYT Cohen's d, P3h4 (EV protein P3h4 (Q8K2B0)): 1.62
RTV Corrective Direction, P3h4 (EV protein P3h4 (Q8K2B0), DYT + RTV vs DYT): YES
Absolute Cohen's d Sum (Geno + RTV), Pacsin3 (EV protein Pacsin3 (Q99JB8)): 6.45
DYT + RTV/DYT Cohen's d, Pacsin3 (EV protein Pacsin3 (Q99JB8)): −3.41
RTV Corrective Direction, Pacsin3 (EV protein Pacsin3 (Q99JB8), DYT + RTV vs DYT): YES
Absolute Cohen's d Sum (Geno + RTV), Pcdh19 (EV protein Pcdh19 (Q80TF3)): 7.74
DYT + RTV/DYT Cohen's d, Pcdh19 (EV protein Pcdh19 (Q80TF3)): −0.30
Absolute Cohen's d Sum (Geno + RTV), Plpp3 (EV protein Plpp3 (Q99JY8)): 4.97
DYT + RTV/DYT Cohen's d, Plpp3 (EV protein Plpp3 (Q99JY8)): 0.51
Absolute Cohen's d Sum (Geno + RTV), Rbm17 (EV protein Rbm17 (Q8JZX4)): 7.77
DYT + RTV/DYT Cohen's d, Rbm17 (EV protein Rbm17 (Q8JZX4)): 2.38
RTV Corrective Direction, Rbm17 (EV protein Rbm17 (Q8JZX4), DYT + RTV vs DYT): YES
Absolute Cohen's d Sum (Geno + RTV), Sbno1 (EV protein Sbno1 (Q689Z5)): 4.67
DYT + RTV/DYT Cohen's d, Sbno1 (EV protein Sbno1 (Q689Z5)): 1.29
RTV Corrective Direction, Sbno1 (EV protein Sbno1 (Q689Z5), DYT + RTV vs DYT): YES
Absolute Cohen's d Sum (Geno + RTV), Sec61b (EV protein Sec61b (Q9CQS8)): 3.57
DYT + RTV/DYT Cohen's d, Sec61b (EV protein Sec61b (Q9CQS8)): 0.27
RTV Corrective Direction, Sec61b (EV protein Sec61b (Q9CQS8), DYT + RTV vs DYT): YES
Absolute Cohen's d Sum (Geno + RTV), Sh3bp4 (EV protein Sh3bp4 (Q921I6)): 4.75
DYT + RTV/DYT Cohen's d, Sh3bp4 (EV protein Sh3bp4 (Q921I6)): −0.91
Absolute Cohen's d Sum (Geno + RTV), Srrm2 (EV protein Srrm2 (Q8BTI8)): 7.87
DYT + RTV/DYT Cohen's d, Srrm2 (EV protein Srrm2 (Q8BTI8)): 3.51
RTV Corrective Direction, Srrm2 (EV protein Srrm2 (Q8BTI8), DYT + RTV vs DYT): YES
Absolute Cohen's d Sum (Geno + RTV), Sumo1 (EV protein Sumo1 (P63166)): 5.99
DYT + RTV/DYT Cohen's d, Sumo1 (EV protein Sumo1 (P63166)): 2.28
RTV Corrective Direction, Sumo1 (EV protein Sumo1 (P63166), DYT + RTV vs DYT): YES
Absolute Cohen's d Sum (Geno + RTV), Tes (EV protein Tes (P47226)): 4.69
DYT + RTV/DYT Cohen's d, Tes (EV protein Tes (P47226)): 0.20
RTV Corrective Direction, Tes (EV protein Tes (P47226), DYT + RTV vs DYT): YES
Absolute Cohen's d Sum (Geno + RTV), Timp3 (EV protein Timp3 (P39876)): 7.42
DYT + RTV/DYT Cohen's d, Timp3 (EV protein Timp3 (P39876)): −2.93
RTV Corrective Direction, Timp3 (EV protein Timp3 (P39876), DYT + RTV vs DYT): YES
Absolute Cohen's d Sum (Geno + RTV), Tspan7 (EV protein Tspan7 (Q62283)): 7.37
DYT + RTV/DYT Cohen's d, Tspan7 (EV protein Tspan7 (Q62283)): −2.89
Absolute Cohen's d Sum (Geno + RTV), Unc119b (EV protein Unc119b (Q8C4B4)): 4.63
DYT + RTV/DYT Cohen's d, Unc119b (EV protein Unc119b (Q8C4B4)): 2.22
RTV Corrective Direction, Unc119b (EV protein Unc119b (Q8C4B4), DYT + RTV vs DYT): YES
Pearson's r between genotype and ritonavir effects on EV protein abundance (entire proteome, n=1974): −0.74
Pearson's r between genotype and ritonavir effects on EV protein abundance (putative DYT biomarker subset, n=363): −0.78
additional human plasma EV protein homologs modulated in a corrective direction in mouse DYT1 EV experiment (MEF), not reaching significance (p<0.05) (ritonavir): 687
all EV proteins with log 2 fold change>0 (ritonavir 20 μM, 24 h): 1372/1974
number of significant hits among 363 proteins relative to chance (α=0.05) (ritonavir 20 μM, 24 h): 12 times
overall effect on the DYT-TOR1A MEF EV proteome (ritonavir 20 μM, 24 h): broad corrective effect
significantly modified EV proteins with log 2 fold change>0 (ritonavir 20 μM, 24 h): 508/582
overall effect on the DYT-TOR1A MEF EV proteome (ritonavir 20 μM, 24 h, listed as Ritonavir): proteome-wide corrective effects
hierarchical clustering of EV samples on 363 genotype biomarker proteins (ritonavir-treated DYT-TOR1A EV samples): clustered more closely with WT than DYT-TOR1A samples
